According to patent US20050009132A1, “Culture medium for detecting and/or discriminating enterococcus and method therefor” (priority 2001, published 2005):

Tested on: Gram-positive bacteria
Test: Addition of Crystal Violet to culture medium, growth inhibition of Gram-positive bacteria
Format: cell-based
Details: concentration as low as

In the case of `CN(C)c1ccc(C(=C2C=CC(=[N+](C)C)C=C2)c2ccc(N(C)C)cc2)cc1` [Crystal Violet], the “Crystal Violet concentration at which inhibition of the growth of a large quantity of Gram-positive bacteria is observed” value is reported as 0.1 mg/L.
